Entries after “also recorded” stand apart in the source; their conditions may differ.

This assay has as its system striated anal sphincter. Nature of the assay: Effect on the electromyographic activity of the rabbit striated anal sphincter under bladder irritation (SS-EMG). In kind it is in vivo. On the procedure: The effect of the HP749 compound was tested on rabbits under conditions of bladder irritation. Female rabbits of the New Zealand race weighing from 2.5 to 3.5 kg were used. The bladder irritation was caused by transcontinuous bladder infusion of 0.5% acetic acid. Under these conditions, the striated anal sphincter electromyography is increased. Throughout the experiment, the animal was placed in the supine position and anaesthetized with 2-3% of halothane. The striated sphincter electromyography (SS-EMG) was carried out using two electrodes (30-gauge needle) placed percutaneously in the striated anal sphincter, approximately 5-10 mm from the anus (laterally). The electric signals were amplified on an ML136 preamplifier (AD Instruments, PanLab, Barcelona, Spain), filtered below 1 Hz and above 5 KHz and presented in a PowerLab window. The striated sphincter electromyography (SS-EMG) was recorded continuously during the cystometry. Cumulative doses of the HP749 compound (0, 1, 3 and 5 mg/kg) were administered through an intravenous canula connected to the ear vein. The medicaments in saline solution were freshly prepared before each experiment and administered in a volume of 1 ml, followed by rinsing with 1 ml of physiological saline solution. The results were expressed by the mean±the standard error of the […]. The electromyographic values obtained under conditions of irritation after administration of a placebo were used as control values. The effects of the HP749 compound were analysed and compared with the control values by means of a Wilcoxon test. The results obtained were considered to be significant when p<0.05.

For `CCCN(c1ccncc1)n1ccc2ccccc21` [HP749, N-propyl-N-(4-pyridinyl)-1H-indol-1-amine], the “mean increase in the EMG activity compared with the control value” (anaesthetized female New Zealand rabbits, bladder irritation with 0.5% acetic acid, cumulative i.v. doses 1, 3 and 5 mg/kg, control = placebo, p<0.01) worked out at 155%. Moreover, the “effect on the electromyographic (EMG) activity of the striated anal sphincter” value (at all the doses (1, 3 and 5 mg/kg i.v.), FIG. 1, Wilcoxon test vs placebo control) is reported as “significant effect; also recorded: powerful effect”. Moreover, the “dose at which the effect on the external anal sphincter appeared to have reached its maximum” value (rabbits, i.v., lowest dose tested) was 1 mg/kg.

For the origin of these results see patent publication US20100063102A1, “TREATMENT OF FAECAL INCONTINENCE” (UROGENE, priority 2007, published 2010).
